Patent US8946478B2, “Benzamide derivative with anticancer activity and preparation method and use thereof” (Zhejiang Hisun Pharmaceutical Co., Ltd., priority 2010, dated 2015)

System: 18 tumor cell strains
Experiment: In vitro efficacy screening, summary over the tumor cell strains
Assay type: cell-based, human

C#Cc1ccc(C(N)=O)cc1[N+](=O)[O-] [Compound I-1, 4-ethynyl-3-nitrobenzamide]
efficacy relative to the positive drug BSI-201 (in the measured 18 tumor cell strains): 10 times
inhibitory effects on tumor cell proliferation (in words) (in vitro screening, BSI-201 as positive drug): have inhibitory effects on tumor cell proliferation
